Legend:
ST8814 [1] = experiment: relative IC50 (inflection point of fitted dose-response curve, CellTox-Green cytotoxicity, 72 h; top asymptote may be below 50%); higher = less potent
Procedure, shortened: (§1)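 For 72 h at 37 °C, MPNST cell lines and primary human Schwann cells were exposed in 384-well plates to five 10-fold compound dilutions. CellTox-Green, added before seeding at a final 1:1000 dilution, gave fluorescence from DNA released by disrupted cells. Signals were scaled to vehicle and positive-control wells, cultures failing plate quality control were left out, and four-parameter logistic fits were applied. Relative IC50 and drug sensitivity score were derived from the fits, with IC50 censored at the top concentration.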

STS26T [2] = experiment: as above
Procedure, shortened: as §1

HSC1 [3] = experiment: as above
Procedure, shortened: as §1

S1507-2 [4] = experiment: as above
Procedure, shortened: as §1

HSC2 [5] = experiment: as above
Procedure, shortened: as §1

HS-Sch-2 = experiment: relative IC50 (inflection point of fitted dose-response curve, CellTiter-Glo viability, 72 h; top asymptote may be below 50% inhibition); higher = less potent
Procedure, shortened: (§2)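 After seeding 750–1000 cells per well of MPNST cell lines or primary human Schwann cells into 384-well plates preprinted with each compound at five concentrations in 10-fold steps, plates were kept 72 h at 37 °C, 5% CO2. Viability was read as CellTiter-Glo ATP luminescence relative to vehicle and positive-control wells, with duplicates averaged where present. The data were fitted with four-parameter logistic models. Drug sensitivity score and relative IC50, censored at the top concentration, derive from the fits, and percent inhibition refers to the top concentration.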

ST8814 [6] = experiment: as above
Procedure, shortened: as §2

STS26T [7] = experiment: as above
Procedure, shortened: as §2

HS-PSS [8] = experiment: as above
Procedure, shortened: as §2

YST-1 = experiment: as above
Procedure, shortened: as §2

HSC1 [9] = experiment: as above
Procedure, shortened: as §2

S1507-2 [10] = experiment: as above
Procedure, shortened: as §2

S462 = experiment: as above
Procedure, shortened: as §2

HSC2 [11] = experiment: as above
Procedure, shortened: as §2

HS-PSS [12] = experiment: relative IC50 (inflection point of fitted dose-response curve, CellTox-Green cytotoxicity, 72 h; top asymptote may be below 50%); higher = less potent
Procedure, shortened: as §1

| Compound | relative IC50 (ST8814 [1]) | relative IC50 (STS26T [2]) | relative IC50 (HSC1 [3]) | relative IC50 (S1507-2 [4]) | relative IC50 (HSC2 [5]) | relative IC50 (HS-Sch-2) | relative IC50 (ST8814 [6]) | relative IC50 (STS26T [7]) | relative IC50 (HS-PSS [8]) | relative IC50 (YST-1) | relative IC50 (HSC1 [9]) | relative IC50 (S1507-2 [10]) | relative IC50 (S462) | relative IC50 (HSC2 [11]) | relative IC50 (HS-PSS [12]) |
| --- | --- | --- | --- | --- | --- | --- | --- | --- | --- | --- | --- | --- | --- | --- | --- |
| CC(=O)O[C@@]12CO[C@@H]1C[C@H](O)[C@@]1(C)C(=O)[C@H](O)C3=C(C)[C@@H](OC(=O)[C@H](O)[C@@H](NC(=O)OC(C)(C)C)c4ccccc4)C[C@@](O)([C@@H](OC(=O)c4ccccc4)[C@H]21)C3(C)C [Docetaxel] | 4.62 nM | 1.15 nM | 6.11 nM | 6.13 nM | 8.43 nM | 2.11 nM | 3.95 nM | 1.07 nM | 3.86 nM | 1.02 nM | 3.08 nM | 8.6 nM | 0.759 nM | 4.15 nM | – |
| Cc1cc(Nc2cc(CN3CCOCC3)c3nc(C)c(Cc4ccc(Cl)cc4F)n3n2)n[nH]1 [Gandotinib] | 2770 nM | 1700 nM | 1990 nM | 2400 nM | 2250 nM | 1550 nM | 1730 nM | 718 nM | 1000 nM | 1170 nM | 1270 nM | 1200 nM | 862 nM | 1090 nM | – |
| C=CCn1c(=O)c2cnc(Nc3ccc(N4CCN(C)CC4)cc3)nc2n1-c1cccc(C(C)(C)O)n1 [MK1775] | 375 nM | 167 nM | 1210 nM | 196 nM | 1510 nM | 84.1 nM | 264 nM | 361 nM | 547 nM | 326 nM | 224 nM | 231 nM | 111 nM | 225 nM | – |
| COC(=O)C[C@](O)(CCCC(C)(C)O)C(=O)O[C@@H]1C(OC)=C[C@]23CCCN2CCc2cc4c(cc2[C@H]13)OCO4 [Omacetaxine] | 489 nM | 130 nM | 1090 nM | 524 nM | 589 nM | 67.5 nM | 46.5 nM | 41.6 nM | 47 nM | 9.94 nM | 51.7 nM | 66.1 nM | 23.8 nM | 50.8 nM | – |
| OC[C@H]1O[C@@H](n2cnc3c2N=CNC[C@H]3O)C[C@@H]1O [Pentostatin] | > 10000 nM | > 10000 nM | > 10000 nM | > 10000 nM | > 10000 nM | > 10000 nM | > 10000 nM | > 10000 nM | > 10000 nM | – | > 10000 nM | > 10000 nM | > 10000 nM | > 10000 nM | > 10000 nM |
| Cn1c(Nc2ccc(C(F)(F)F)cc2)nc2cc(Oc3ccnc(-c4ncc(C(F)(F)F)[nH]4)c3)ccc21 [RAF265] | > 1000 nM | > 1000 nM | > 1000 nM | > 1000 nM | > 1000 nM | – | 107 nM | 137 nM | 177 nM | 131 nM | 49.6 nM | 136 nM | 111 nM | 20.6 nM | > 1000 nM |

From the supplement of paper PMC5579334
